Data: patent US11548894B2, “Benzamide or benzamine compounds useful as anticancer agents for the treatment of human cancers” (The Board of Regents of the University of Texas System, priority 2015, dated 2023)
Where a name gives a salt, the structure may show the parent alone. Read-outs that look alike come from different tables or passages of the source.

How the values were obtained:
[1] = S9 Metabolism Assay (half-life by substrate depletion); assay type: in vitro ADME; conditions: female, ICR/CD-1, S9 fractions, pH 7.5; mouse S9, 2 μM compound; time plotted in min; read-out: S9 T1/2
Protocol: Female ICR/CD-1 mouse S9 fractions were purchased from Celsis/In Vitro Technologies (Baltimore, Md.). 25 μl (0.5 mg) of S9 protein was added to a 15 ml glass screw cap tube. 350 μl of a 50 mM Tris, pH 7.5 solution, containing the compound of interest was added on ice. The final concentration of compound after addition of all reagents was 2 μM. 125 μl of an NADPH-regenerating system (1.7 mg/ml NADP, 7.8 mg/ml glucose-6-phosphate, 6 U/ml glucose-6-phosphate dehydrogenase in 2% w/v NaHCO3/10 mm MgCl2) was added for analysis of Phase I metabolism. Uridine 5′-diphospho-α-D-glucuronic acid (UDPGA 1.9 mg/ml) and 3′-phosphoadenosine-5′-phosphosulphate (PAPS, 100 mg/ml) were additionally added for phase II reactions. The tube was then placed in a 37° C. shaking water bath. At varying time points after addition of phase I and phase II cofactors, the reaction was stopped by the addition of 0.5 ml of methanol containing 0.2% formic acid and 200 ng/ml internal standard (either n-benzylbenzamide or tolbutamide, Sigma, St. Louis, Mo.). The samples were incubated 10′ at RT and then spun at 16,100×g for 5 min in a microcentrifuge. The supernatant was analyzed by LC-MS/MS. Metabolism of 7-ethoxycoumarin was used to monitor […] performance. Analytical methods were developed for each compound using an Applied Biosystems (Foster City, Calif.) 4000-QTrap, a combination triple quadrupole/ion trap instrument. The parent ion and the two most prominent daughter ions were followed to confirm compound identity, although only the most abundant daughter was used for quantitation. A Shimadzu (Columbia, Md.) Prominence LC with Agilent C18 XDB column (5 micron packing; 50×4.6 mm) was used for chromatography.
The method described in McNaney, et al (McNaney, C A, D M Drexler, S Hnatyshyn, T A Zvyaga, J O Knipe, J V Belcastro, and M Sanders. 2008. An automated liquid chromatography-mass spectrometry process to determine metabolic stability half-life and intrinsic clearance of drug candidates by substrate depletion. Assay and Drug Development Technologies 6:121-129. Determination of Plasma and Brain Pharmacokinetics) was used with modification for determination of metabolic stability half-life by substrate depletion. A “% remaining” value was used to assess metabolic stability of a compound over time. The LC/MS/MS peak area of the incubated sample at each time point was divided by the LC/MS/MS peak area of the time 0 (TO) sample and multiplied by 100. The natural Log (LN) of the % remaining of compound was then plotted versus time (in min) and a linear regression curve plotted going through y-intercept at LN(100).

Mut6 cells (TD-NSC) = assay: luminescence-based Celltiter-Glo cell viability assay (ATP levels) on Mut6 tumor derived neuronal stem cells; design: species or system mouse; conditions: ATP activity as measure of viability, 96 hours, read-out: EC50 (TD-NSC)
From the text: A mouse colony with 100% incidence of GBM and with conditional knockout of p53, pTEN and NF1 genes (Mut6; glioblastoma) was used to isolate primary neuronal stem cells from GBM tumors cultured in 5% Oxygen and in serum free media with defined growth factors. Primary cells from multiple tumors were pooled for high throughput screening with controls against the University of Texas Southwestern (UTSW) compound file, which encompasses ˜200,000 synthetic compounds that represent a large chemical space from several commercial vendors, including 1200 marketed drugs from the Prestwick Chemical Library®, and 600 compounds that went to pre-clinical tests from the NIH library.
A luminescence-based Celltiter-Glo® assay was performed to measure cell viability, using ATP levels as the readout. In brief, opaque-walled multiwell plates with Mut6 cells in culture medium (25 μl per well, 384-well plates) were prepared. Control wells containing medium without cells were prepared to obtain a value for background luminescence. Test compounds were added to experimental wells, and incubated according to culture protocol. The plate and its contents were incubated at 37° C., 5% […] for 96 hours. An ATP standard curve was generated immediately prior to adding the CellTiter-Glo® Reagent. A volume of CellTiter-Glo® Reagent equal to the volume of cell culture medium present in each well (25 μl of reagent to 25 μl of medium containing cells for a 384-well plate) was added. The contents were mixed for 2 minutes on an orbital shaker to induce cell lysis. The plate was allowed to incubate at room temperature for 10 minutes to stabilize the luminescent signal and luminescence recorded. (e.g. GloMax®, Lumistar, SPECTROstar, PHERAstar FS).
Compound 4C12 served as initial lead compound for analog development and for additional studies. […] See Wager, T T et al, “Moving beyond rules: the development of a central nervous system multi-parameter-optimization (CNS MPO) approach to enable alignment of drug-like properties,” ACS Chem. Neurosci. 1(6): 435-49 (2010). IC50 curves for the analog compounds plotted as ATP activity (y axis, a measure of viability) vs. concentration (nM) (x-axis) are shown in FIG. 9.

Row | half-life at 2 μM [1] | EC50 (Mut6 cells (TD-NSC); Mus musculus, 96 h) | EC50 (Mut6 cells (TD-NSC)) | EC50 (Mut6 cells (TD-NSC); Hydrochloride) | Compound
1 | 1.48 h | 51 nM | – | – | CCN1CCCC1CNC(=O)c1ccc(Sc2ccc(Cl)cc2)c([N+](=O)[O-])c1 (stereo not shown) [DS-1-163, 4-((4-chlorophenyl)thio)-N-((1-ethylpyrrolidin-2-yl)methyl)-3-nitrobenzamide]
2 | 1.98 h | – | 45 nM | – | CCN1CCCC1CNC(=O)c1ccc(Sc2ccc(F)cc2)c([N+](=O)[O-])c1 (stereo not shown) [DS-1-033, N-((1-ethylpyrrolidin-2-yl)methyl)-4-((4-fluorophenyl)thio)-3-nitrobenzamide]
3 | 0.59 h | 50 nM | – | – | CCN1CCCC1CNC(=O)c1ccc(Sc2ccccc2)c([N+](=O)[O-])c1 (stereo not shown) [DS-1-055, N-((1-ethylpyrrolidin-2-yl)methyl)-3-nitro-4-(phenylthio)benzamide]
4 | 1.46 h | 51 nM | – | – | CCN1CCCC1CNC(=O)c1ccc(Sc2ccc(F)cc2F)c([N+](=O)[O-])c1 (stereo not shown) [DS-1-125, 4-((2,4-difluorophenyl)thio)-N-((1-ethylpyrrolidin-2-yl)methyl)-3-nitrobenzamide]
5 | 0.445 h | 58 nM | – | – | CC1C2CCCN2CCN1C(=O)c1ccc(Sc2ccc(F)cc2)c([N+](=O)[O-])c1 (stereo not shown) [DS-1-279, (4-((4-fluorophenyl)thio)-3-nitrophenyl)(1-methylhexahydropyrrolo[1,2-a]pyrazin-2(1H)-yl)methanone]
6 | 0.357 h | 36 nM | – | – | CCN1CCCC1CNCc1ccc(Sc2ccc(F)cc2)c([N+](=O)[O-])c1 (stereo not shown) [DS-1-079, 1-(1-ethylpyrrolidin-2-yl)-N-(4-((4-fluorophenyl)thio)-3-nitrobenzyl)methanamine]
7 | 0.75 h | – | 22 nM | – | CCN(CC)CCNC(=O)c1ccc(Sc2ccc(F)cc2)c([N+](=O)[O-])c1 [DS-1-043, N-(2-(diethylamino)ethyl)-4-((4-fluorophenyl)thio)-3-nitrobenzamide]
8 | 1.54 h | 150 nM | – | – | CCN1CCCC1CNC(=O)c1ccc(Sc2ccncc2)c([N+](=O)[O-])c1 (stereo not shown) [DS-1-129, N-((1-ethylpyrrolidin-2-yl)methyl)-3-nitro-4-(pyridin-4-ylthio)benzamide]
9 | 0.668 h | – | – | – | N#Cc1cc(C(=O)NCCN2CCOCC2)ccc1Sc1ccc(F)cc1 [DS-2-027, 3-cyano-4-((4-fluorophenyl)thio)-N-(2-morpholinoethyl)benzamide]
10 | 1.08 h | 53 nM | – | – | CCN1CCCC1CNC(=O)c1ccc(Sc2ccc(F)cc2)c(C#N)c1 (stereo not shown) [DS-1-227, 3-cyano-N-((1-ethylpyrrolidin-2-yl)methyl)-4-((4-fluorophenyl)thio)benzamide]
11 | 1.1 h | 31 nM | – | – | CCN1CCC[C@H]1CNC(=O)c1ccc(Sc2ccc(F)cc2)c([N+](=O)[O-])c1 [DS-1-053, (S)—N-((1-ethylpyrrolidin-2-yl)methy)-4-((4-fluorophenyl)thio)-3-nitrobenzamide]
12 | 1.96 h | – | – | – | CCN1CCCC1CNC(=O)c1ccc(Oc2ccc(F)cc2)c(C#N)c1 (stereo not shown) [DS-1-311, 3-cyano-N-((1-ethylpyrrolidin-2-yl)methyl)-4-(4-fluorophenoxy)benzamide]
13 | > 4 h | 236 nM | – | – | CCN1CCCC1CNC(=O)c1ccc(Sc2ccc(F)cc2)c(S(C)(=O)=O)c1 (stereo not shown) [DS-1-301, N-((1-ethylpyrrolidin-2-yl)methyl)-4-((4-fluorophenyl)thio)-3-(methylsulfonyl)benzamide]
14 | 3.12 h | 52 nM | – | – | O=C(NCCN1CCCC1)c1ccc(Sc2ccc(F)cc2)c([N+](=O)[O-])c1 [DS-1-063, 4-((4-fluorophenyl)thio)-3-nitro-N-(2-(pyrrolidin-1-yl)ethyl)benzamide]
15 | 1.75 h | 79 nM | – | – | CN1CCCC1CCNC(=O)c1ccc(Sc2ccc(F)cc2)c([N+](=O)[O-])c1 (stereo not shown) [DS-1-061, 4-((4-fluorophenyl)thio)-N-(2-(1-methylpyrrolidin-2-yl)ethyl)-3-nitrobenzamide]
16 | 4 h | 132 nM | – | – | O=C(NC[C@@H]1CCCN1)c1ccc(Sc2ccc(F)cc2)c([N+](=O)[O-])c1 [DS-1-085, (S)-4-((4-fluorophenyl)thio)-3-nitro-N-(pyrrolidin-2-ylmethyl)benzamide]
17 | 0.683 h | 87 nM | – | – | CCN1CCCC1CNC(=O)c1ccc(Sc2ccc(F)cc2)c(F)c1 (stereo not shown) [DS-2-053, N-((1-ethylpyrrolidin-2-yl)methyl)-3-fluoro-4-((4-fluorophenyl)thio)benzamide]
18 | 1.56 h | 42 nM | – | – | O=C(NCCCN1CCOCC1)c1ccc(Sc2ccc(F)cc2)c([N+](=O)[O-])c1 [DS-1-283, 4-((4-fluorophenyl)thio)-N-(3-morpholinopropyl)-3-nitrobenzamide]
19 | 1.6 h | 35 nM | – | – | CCN1CCCC1CNC(=O)c1ccc(SCc2ccc(F)cc2)c([N+](=O)[O-])c1 (stereo not shown) [DS-1-131, N-((1-ethylpyrrolidin-2-yl)methyl)-4-((4-fluorobenzyl)thio)-3-nitrobenzamide]
20 | 0.587 h | 88 nM | – | – | CCN1CCCC1CNC(=O)c1ccc(Sc2cccc(F)c2)c([N+](=O)[O-])c1 (stereo not shown) [DS-1-069, N-((1-ethylpyrrolidin-2-yl)methyl)-4-((3-fluorophenyl)thio)-3-nitrobenzamide]
21 | 0.802 h | 62 nM | – | – | CCN1CCCC1CNC(=O)c1ccc(Sc2ccc(OC)cc2)c([N+](=O)[O-])c1 (stereo not shown) [DS-1-133, N-((1-ethylpyrrolidin-2-yl)methyl)-4-((4-methoxyphenyl)thio)-3-nitrobenzamide]
22 | 1.65 h | 74 nM | – | – | N#Cc1cc(C(=O)NCCN2CCOCC2)ccc1Oc1ccc(F)cc1 [DS-2-045, 3-cyano-4-(4-fluorophenoxy)-N-(2-morpholinoethyl)benzamide]
23 | 1.89 h | 33 nM | – | – | CCN1CCC[C@@H]1CNC(=O)c1ccc(Sc2ccc(F)cc2)c([N+](=O)[O-])c1 [DS-1-031, (R)—N-((1-ethylpyrrolidin-2-yl)methyl)-4-((4-fluorophenyl)thio)-3-nitrobenzamide]
24 | – | > 1000 nM | – | – | CCN1CCCC1CNC(=O)c1ccc(-c2ccc(F)cc2)c([N+](=O)[O-])c1 (stereo not shown) [DS-1-181, N-((1-ethylpyrrolidin-2-yl)methyl)-4′-fluoro-2-nitro-[1,1′-biphenyl]-4-carboxamide]
25 | – | – | – | 95 nM | CCN1CCCC1CNC(=O)c1ccc(Sc2ccc(F)cc2)c([N+](=O)[O-])c1 (stereo not shown) [DS-1-191, N-((1-ethylpyrrolidin-2-yl)methyl)-4-((4-fluorophenyl)thio)-3-nitrobenzamide Hydrochloride]
